Results taken from US12077503B2, “Substituted cyclic amides and their use as herbicides” (FMC CORPORATION, priority 2015, dated 2024).

Key:
Assay type in all cases: in vivo
[1] = test system: Galium (catchweed bedstraw, Galium aparine); test: Test C preemergence; conditions: for Plant response rating, Galium: scale 0 to 100, 0 no effect, 100 complete control
Summary of the method: (§1)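 Scores of 0 to 100 reflect visual comparison with control plants, where 0 means no effect and 100 complete control, made 13 to 15 d after treatment. Application was preemergence to seeds in loam-sand soil or postemergence to plants 2 to 18 cm tall in peat-based mix, using a surfactant-containing solvent formulation.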

[2] = test system: barnyardgrass (Echinochloa crus-galli); test: Test C preemergence; conditions: for Plant response rating, Barnyardgrass: scale 0 to 100, 0 no effect, 100 complete control
Summary of the method: as §1

[3] = test system: blackgrass (Alopecurus myosuroides); test: Test C preemergence; conditions: for Plant response rating, Blackgrass: scale 0 to 100, 0 no effect, 100 complete control
Summary of the method: as §1

corn (Zea mays) = test: Test C preemergence; conditions: for Plant response rating, Corn: scale 0 to 100, 0 no effect, 100 complete control
Summary of the method: as §1

[4] = test system: crabgrass, large (large crabgrass, Digitaria sanguinalis); test: Test C preemergence; conditions: for Plant response rating, Crabgrass, Large: scale 0 to 100, 0 no effect, 100 complete control
Summary of the method: as §1

[5] = test system: foxtail, giant (giant foxtail, Setaria faberii); test: Test C preemergence; conditions: for Plant response rating, Foxtail, Giant: scale 0 to 100, 0 no effect, 100 complete control
Summary of the method: as §1

[6] = test system: johnsongrass (Sorghum halepense); test: Test C preemergence; conditions: for Plant response rating, Johnsongrass: scale 0 to 100, 0 no effect, 100 complete control
Summary of the method: as §1

[7] = test system: lambsquarters (Chenopodium album); test: Test C preemergence; conditions: for Plant response rating, Lambsquarters: scale 0 to 100, 0 no effect, 100 complete control
Summary of the method: as §1

[8] = test system: morningglory (Ipomoea coccinea); test: Test C preemergence; conditions: for Plant response rating, Morningglory: scale 0 to 100, 0 no effect, 100 complete control
Summary of the method: as §1

[9] = test system: nutsedge, yellow (yellow nutsedge, Cyperus esculentus); test: Test C preemergence; conditions: for Plant response rating, Nutsedge, Yellow: scale 0 to 100, 0 no effect, 100 complete control
Summary of the method: as §1

[10] = test system: oilseed rape (Brassica napus); test: Test C preemergence; conditions: for Plant response rating, Oilseed Rape: scale 0 to 100, 0 no effect, 100 complete control
Summary of the method: as §1

[11] = test system: pigweed (Amaranthus retroflexus); test: Test C preemergence; conditions: for Plant response rating, Pigweed: scale 0 to 100, 0 no effect, 100 complete control
Summary of the method: as §1

[12] = test system: ragweed (common ragweed, Ambrosia elatior); test: Test C preemergence; conditions: for Plant response rating, Ragweed: scale 0 to 100, 0 no effect, 100 complete control
Summary of the method: as §1

[13] = test system: ryegrass, Italian (Italian ryegrass, Lolium multiflorum); test: Test C preemergence; conditions: for Plant response rating, Ryegrass, Italian: scale 0 to 100, 0 no effect, 100 complete control
Summary of the method: as §1

soybean (Glycine max) = test: Test C preemergence; conditions: for Plant response rating, Soybean: scale 0 to 100, 0 no effect, 100 complete control
Summary of the method: as §1

[14] = test system: velvetleaf (Abutilon theophrasti); test: Test C preemergence; conditions: for Plant response rating, Velvetleaf: scale 0 to 100, 0 no effect, 100 complete control
Summary of the method: as §1

[15] = test system: waterhemp (common waterhemp, Amaranthus rudis); test: Test C preemergence; conditions: for Plant response rating, Waterhemp: scale 0 to 100, 0 no effect, 100 complete control
Summary of the method: as §1

[16] = test system: wheat (winter wheat, Triticum aestivum); test: Test C preemergence; conditions: for Plant response rating, Wheat: scale 0 to 100, 0 no effect, 100 complete control
Summary of the method: as §1

[17] = test system: sedge, umbrella (small-flower umbrella sedge, Cyperus difformis); test: Test C flooded paddy test; conditions: Flood; for Plant response rating (scale of 0 to 100), Sedge, Umbrella: 0 is no effect, 100 is complete control
Summary of the method: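 Compound was added directly to paddy water held 3 cm above the soil, with plants at the 2-leaf stage. Injury was scored visually versus untreated controls after 13–15 d greenhouse growth, using a 0–100 scale where 100 means complete control.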

[18] = 31 g ai/ha, 0 is no effect, 100 is complete control

CN1CC(c2cc(F)cc(F)c2)C(C(=O)Nc2cccc(F)c2F)C1=O (stereo not drawn) [Compound 644]
Plant response rating (scale of 0 to 100), Galium [1, 18]: 10
Plant response rating, Galium ([1]; 62 g ai/ha): 85
Plant response rating, Galium ([1]; 125 g ai/ha): 90
Plant response rating, Galium ([1]; 250 g ai/ha): 98
Plant response rating (scale of 0 to 100), Barnyardgrass [2, 18]: 90
Plant response rating, Barnyardgrass ([2]; 62 g ai/ha): 95
Plant response rating, Barnyardgrass ([2]; 125 g ai/ha): 98
Plant response rating, Barnyardgrass ([2]; 250 g ai/ha): 98
Plant response rating (scale of 0 to 100), Blackgrass [3, 18]: 70
Plant response rating, Blackgrass ([3]; 62 g ai/ha): 70
Plant response rating, Blackgrass ([3]; 125 g ai/ha): 90
Plant response rating, Blackgrass ([3]; 250 g ai/ha): 95
Plant response rating (scale of 0 to 100), Corn (corn (Zea mays); [18]): 30
Plant response rating, Corn (corn (Zea mays); 62 g ai/ha): 50
Plant response rating, Corn (corn (Zea mays); 125 g ai/ha): 65
Plant response rating, Corn (corn (Zea mays); 250 g ai/ha): 85
Plant response rating (scale of 0 to 100), Crabgrass, Large [4, 18]: 95
Plant response rating, Crabgrass, Large ([4]; 62 g ai/ha): 95
Plant response rating, Crabgrass, Large ([4]; 125 g ai/ha): 98
Plant response rating, Crabgrass, Large ([4]; 250 g ai/ha): 100
Plant response rating (scale of 0 to 100), Foxtail, Giant [5, 18]: 95
Plant response rating, Foxtail, Giant ([5]; 62 g ai/ha): 95
Plant response rating, Foxtail, Giant ([5]; 125 g ai/ha): 98
Plant response rating, Foxtail, Giant ([5]; 250 g ai/ha): 98
Plant response rating (scale of 0 to 100), Johnsongrass [6, 18]: 35
Plant response rating, Johnsongrass ([6]; 62 g ai/ha): 70
Plant response rating, Johnsongrass ([6]; 125 g ai/ha): 85
Plant response rating, Johnsongrass ([6]; 250 g ai/ha): 85
Plant response rating (scale of 0 to 100), Lambsquarters [7, 18]: 50
Plant response rating, Lambsquarters ([7]; 62 g ai/ha): 75
Plant response rating, Lambsquarters ([7]; 125 g ai/ha): 85
Plant response rating, Lambsquarters ([7]; 250 g ai/ha): 85
Plant response rating (scale of 0 to 100), Morningglory [8, 18]: 0
Plant response rating, Morningglory ([8]; 62 g ai/ha): 0
Plant response rating, Morningglory ([8]; 125 g ai/ha): 0
Plant response rating, Morningglory ([8]; 250 g ai/ha): 0
Plant response rating (scale of 0 to 100), Nutsedge, Yellow [9, 18]: 0
Plant response rating, Nutsedge, Yellow ([9]; 62 g ai/ha): 0
Plant response rating, Nutsedge, Yellow ([9]; 125 g ai/ha): 0
Plant response rating, Nutsedge, Yellow ([9]; 250 g ai/ha): 15
Plant response rating (scale of 0 to 100), Oilseed Rape [10, 18]: 0
Plant response rating, Oilseed Rape ([10]; 62 g ai/ha): 50
Plant response rating, Oilseed Rape ([10]; 125 g ai/ha): 85
Plant response rating, Oilseed Rape ([10]; 250 g ai/ha): 90
Plant response rating (scale of 0 to 100), Pigweed [11, 18]: 0
Plant response rating, Pigweed ([11]; 62 g ai/ha): 55
Plant response rating, Pigweed ([11]; 125 g ai/ha): 55
Plant response rating, Pigweed ([11]; 250 g ai/ha): 70
Plant response rating (scale of 0 to 100), Ragweed [12, 18]: 25
Plant response rating, Ragweed ([12]; 62 g ai/ha): 35
Plant response rating, Ragweed ([12]; 125 g ai/ha): 70
Plant response rating, Ragweed ([12]; 250 g ai/ha): 85
Plant response rating (scale of 0 to 100), Ryegrass, Italian [13, 18]: 50
Plant response rating, Ryegrass, Italian ([13]; 62 g ai/ha): 55
Plant response rating, Ryegrass, Italian ([13]; 125 g ai/ha): 65
Plant response rating, Ryegrass, Italian ([13]; 250 g ai/ha): 98
Plant response rating (scale of 0 to 100), Soybean (soybean (Glycine max); [18]): 10
Plant response rating, Soybean (soybean (Glycine max); 62 g ai/ha): 10
Plant response rating, Soybean (soybean (Glycine max); 125 g ai/ha): 0
Plant response rating (scale of 0 to 100), Velvetleaf [14, 18]: 5
Plant response rating, Velvetleaf ([14]; 62 g ai/ha): 15
Plant response rating, Velvetleaf ([14]; 125 g ai/ha): 40
Plant response rating, Velvetleaf ([14]; 250 g ai/ha): 60
Plant response rating (scale of 0 to 100), Waterhemp [15, 18]: 10
Plant response rating, Waterhemp ([15]; 62 g ai/ha): 65
Plant response rating, Waterhemp ([15]; 125 g ai/ha): 65
Plant response rating, Waterhemp ([15]; 250 g ai/ha): 80
Plant response rating (scale of 0 to 100), Wheat [16, 18]: 30
Plant response rating, Wheat ([16]; 62 g ai/ha): 80
Plant response rating, Wheat ([16]; 125 g ai/ha): 85
Plant response rating, Wheat ([16]; 250 g ai/ha): 90
Plant response rating, Sedge, Umbrella ([17]; 31 g ai/ha, scale 0 to 100 (0 no effect, 100 complete control), 13 to 15 d): 0
Plant response rating (scale of 0 to 100), Sedge, Umbrella ([17]; 62 g ai/ha): 0
Plant response rating (scale of 0 to 100), Sedge, Umbrella ([17]; 125 g ai/ha): 0
Plant response rating (scale of 0 to 100), Sedge, Umbrella ([17]; 250 g ai/ha): 0
